pIC50: −log10 of the molar value.
Key:
HDAC3/NcoR2 = HDAC3/NcoR2 (Homo sapiens (Human), UniProt O15379); test: HDAC enzyme inhibition assay (Fluor-de-Lys), HDAC3/NcoR2; format: biochemical; details: HDAC3/NcoR2, 2 hours pre-incubation
Protocol: (§1) The HDAC activity inhibition assay was performed as follows to determine the ability of a test compound to inhibit HDAC enzymatic activity. Serial dilutions of HDAC inhibitors were prepared in HDAC assay buffer (25 mM Tris/HCl, pH 8.0, 137 mM NaCl, 2.7 mM KCl, 1 mM MgCl2, pH 8) in 96-well assay plates (Fisher scientific, #07-200-309) and were pre-incubated for 2 hours at room temperature in the presence of 125 μg/ml BSA and purified HDAC1 (BPS Bioscience, San Diego, Calif., #50051), HDAC2 (BPS Bioscience, #50053), or HDAC3/NcoR2 (BPS Bioscience, #50003) at concentrations of 1.25, 1.32, and 0.167 μg/mL, respectively. Following pre-incubation, Fluor-de-Lys™ substrate (Enzo Life Sciences, Plymouth Meeting, Pa., BML-KI104-0050) was added to a final concentration of 10 μM and plates were further incubated for 30 minutes at room temperature. The enzymatic reaction was stopped by addition of Trichostatin A (Sigma-Aldrich, St Louis, Mo., #T8552, final concentration: 100 nM) and trypsin (MP Biomedicals, Solon, Ohio, #02101179) was added to reach a final concentration of 100 μg/mL. After a 15 minute incubation at room temperature, fluorescence was recorded using a Spectramax M2 fluorometer (Molecular Devices, Sunnyvale, Calif.) with excitation at 365 nm and emission at 460 nm. IC50 values were calculated by using a sigmoidal dose-response (variable slope) equation in GraphPad Prism® 5 for Windows (GraphPad Software, La Jolla, Calif.). Results for selected compounds in the HDAC activity inhibition assay are presented in Table 5 (IC50 ranges: IA>20 μM, A<1 μM, 1<B<5 μM, 5<C<10 μM, 10<D<20 μM, ND: not determined).

[1] = Hepatocyte stability and metabolism (parent remaining, acid and OPD formation); format: in vitro ADME; details: human hepatocytes; for % left 6H Hum hep: 5 μM; for OPD: OPD formation by LC-MS/MS after phenylglyoxal derivatisation
Protocol: The inventors have found, however, that formula (I) compound metabolites are substantially free of OPD when formula (I) compounds are subjected to conditions intended to mimic in vivo metabolism pathways. As used herein, the term “substantially free of OPD” means that OPD was not detected by LC-MS/MS after (i) incubating a formula (I) compound with human, monkey, dog and rat hepatocytes and (ii) treating the metabolite milieu with an acidic solution of phenylglyoxal in an organic solvent (this addition leads to quantitative formation of 2-phenylquinoxaline, which can be easily quantified with a low lower limit of quantitation (LLOQ)). See the Examples section.
To assess the stability and metabolism of RGFP compounds and to quantify the metabolites in hepatocytes. This assay was designed to evaluate the metabolism of RGFP compounds, following their incubation with human, monkey, dog and rat hepatocytes by monitoring either parent drug disappearance or metabolite appearance using LC-MS/MS. The results are shown in Table 5 ((% Left in Hep: IA<10%, 50%<A, 50%>B>30%, 30%>C>10%, ND: not determined).
Procedure: Turn on the water-bath heater to 37° C. Take out the KHB buffer and make sure it is at room temp before use. Prepare 2.5 mM concentration of RGFP compound in DMSO stock. Add 10 μL of above DMSO stock to 2490 μL KHB buffer; final concentration of RGFP compound will be 10 μM. Pre-warm 45 ml InVitro HT Medium to 37° C. in a sterile 50 ml conical tube. Add 1.0 mL Torpedo Antibiotic Mix per 45 mL InVitro HT medium. Transfer 13 mL of warm HT medium with Antibiotic Mix into a 15 mL conical tube. Carefully remove the hepatocyte vials from liquid nitrogen (liquid phase). Immediately immerse the vial into a 37° C. water bath. Shake gently until the ice melts entirely. […] Immediately empty contents of the vial into 13 ml of pre-warmed InVitro HT Medium with antibiotics. Rinse the vial with the HT media just transferred the hepatocytes to, in order to ensure complete transfer. Centrifuge the cell suspension at 600 RPM for 5 minutes at room temperature. […] Add 1.0 ml of KHB (at room temperature) buffer to the tube of hepatocyte pellet. Loosen the cell pellet by gently swirling the centrifuge tube. Transfer 100 μL of above solution to a different tube and add 900 μL of KHB buffer to count the cells. Determine the total cell count and the number of viable cells using the Trypan Blue exclusion method. Once the cell count is obtained, multiply the number by 10 (attributing to the dilution factor). Add required volume of KHB buffer to the tube containing hepatocytes such that the final count will be 2 million cells/mL. Dispense 50 μL of 2 million cells/ml to a 96 well plate and then add 50 μl of DMSO stock to respective wells (such that, the concentration of RGFP compounds is 5 μM and number of cells are 100000 in each well). Place the plates on a shaker in a 37° C. incubator with 5% CO2. Separate plates for each time point are advisable (Time points: 0 h, 1 h, 2 h, and 6 h). After each time point, add 100 μL of quenching solution. Quenching solution is an acetonitrile solution containing RGFP531 (10 μM) internal standard, 0.1% formic acid and phenylglyoxol (400 μM). The formic acid and phenylglyoxal is used for the identification and quantification of OPD as mentioned above. Pipette up and down a few times to ensure a complete stop of reaction. Transfer all the solution into a 1.5 ml tube, vortex thoroughly, and centrifuge at 14000 RPM at 4° C. for 5 minutes to precipitate cell debris. Transfer the 150 μL of supernatant to vials for analysis on LC-MS/MS.
LC-MS/MS parameters for RGFP compounds and metabolites including OPD: LC-MS/MS Parameters for API 2000 QTrap: System: HPLC 1100; Column: Gemini C18, 5 μM 4.6×50 mm; Column Temp: Ambient; MS: API 2000 QTrap (MI mode); Mobile Phase A: HPLC water with 0.05% Formic Acid; Mobile Phase B: Acetonitrile with 0.05% Formic Acid.

HDAC2 = HDAC2 (Homo sapiens (Human), UniProt Q92769); test: HDAC enzyme inhibition assay (Fluor-de-Lys), HDAC2; format: biochemical; details: 2 hours pre-incubation
Chain of HDAC2 (Q92769 whole entry): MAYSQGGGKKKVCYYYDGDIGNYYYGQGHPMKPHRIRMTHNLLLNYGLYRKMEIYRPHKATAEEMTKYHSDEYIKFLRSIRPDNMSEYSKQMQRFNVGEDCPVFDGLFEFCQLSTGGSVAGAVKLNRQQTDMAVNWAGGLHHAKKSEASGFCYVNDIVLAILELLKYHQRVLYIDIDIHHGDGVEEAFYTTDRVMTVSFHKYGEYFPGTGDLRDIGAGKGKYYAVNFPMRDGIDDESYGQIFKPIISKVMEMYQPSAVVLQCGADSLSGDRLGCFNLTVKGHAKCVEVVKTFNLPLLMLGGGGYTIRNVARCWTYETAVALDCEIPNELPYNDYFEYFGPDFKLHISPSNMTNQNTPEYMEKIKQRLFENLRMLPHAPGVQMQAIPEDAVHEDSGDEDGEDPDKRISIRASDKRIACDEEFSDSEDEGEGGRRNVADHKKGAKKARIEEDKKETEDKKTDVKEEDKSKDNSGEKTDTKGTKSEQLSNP
Protocol: as §1

Chain of HDAC3/NcoR2 (O15379 whole entry): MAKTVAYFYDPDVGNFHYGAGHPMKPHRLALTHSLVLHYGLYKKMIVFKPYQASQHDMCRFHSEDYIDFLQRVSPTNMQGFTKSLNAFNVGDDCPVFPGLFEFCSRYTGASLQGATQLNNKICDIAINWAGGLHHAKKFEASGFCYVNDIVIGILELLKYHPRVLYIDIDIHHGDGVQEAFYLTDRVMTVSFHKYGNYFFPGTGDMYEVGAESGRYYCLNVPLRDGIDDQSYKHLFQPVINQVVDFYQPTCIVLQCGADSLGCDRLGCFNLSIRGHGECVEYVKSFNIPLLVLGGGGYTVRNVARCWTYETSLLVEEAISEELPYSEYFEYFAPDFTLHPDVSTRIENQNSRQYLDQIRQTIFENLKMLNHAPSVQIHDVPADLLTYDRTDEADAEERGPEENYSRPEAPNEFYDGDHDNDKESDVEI
Chain of HDAC3/NcoR2 (Q9Y618 395-489 partner): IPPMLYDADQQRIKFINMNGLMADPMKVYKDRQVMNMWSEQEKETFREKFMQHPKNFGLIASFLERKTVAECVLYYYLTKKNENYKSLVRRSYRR

SMILES	pIC50 (HDAC3/NcoR2)	% left 6H Hum hep [1]	OPD [1]	pIC50 (HDAC2)
Nc1cc(F)ccc1NC(=O)c1ccc2c(cnn2Cc2cccnc2)c1 [Compound A6]	> 6.00	B (50%>B>30%)	No OPD	> 6.00
Cc1ccc(Cn2ncc3cc(C(=O)Nc4ccccc4N)ccc32)c(C)n1 [Compound A5]	> 6.00	B (50%>B>30%)	No OPD	> 6.00
Cc1ccc(Cn2ncc3cc(C(=O)Nc4ccc(F)cc4N)ccc32)c(C)n1 [Compound A8]	> 6.00	A (50%<A)	No OPD	5.30 to 6.00
Cn1cc(Cn2ncc3cc(C(=O)Nc4ccccc4N)ccc32)cn1 [Compound A3]	> 6.00	A (50%<A)	No OPD	> 6.00
Nc1cc(F)ccc1NC(=O)c1ccc2c(cnn2CC2CC2)c1 [Compound A12]	> 6.00	C (30%>C>10%)	No OPD	5.00 to 5.30
Nc1cc(F)ccc1NC(=O)c1ccc2c(cnn2Cc2cncc(F)c2)c1 [Compound A7]	> 6.00	B (50%>B>30%)	No OPD	> 6.00
Nc1ccccc1NC(=O)c1ccc2nn(Cc3cccnc3)cc2c1 [Compound A13]	> 6.00	A (50%<A)	No OPD	> 6.00

Second part, the compound after the results:

pIC50 (HDAC3/NcoR2)	% left 6H Hum hep [1]	OPD [1]	pIC50 (HDAC2)	SMILES
> 6.00	B (50%>B>30%)	No OPD	> 6.00	Nc1ccccc1NC(=O)c1ccc2c(cnn2Cc2ccc(F)c(F)c2)c1 [Compound A9]
> 6.00	B (50%>B>30%)	No OPD	> 6.00	Nc1ccccc1NC(=O)c1ccc2c(cnn2Cc2ccccc2)c1 [Compound A2]
> 6.00	A (50%<A)	No OPD		Nc1ccccc1NC(=O)c1ccc2c(cnn2Cc2cncc(F)c2)c1 [Compound A4, N-(2-aminophenyl)-1-((5-fluoropyridin-3-yl)methyl)-1H-indazole-5-carboxamide]
> 6.00	A (50%<A)	No OPD		Nc1ccccc1NC(=O)c1ccc2nn(Cc3cncc(F)c3)cc2c1 [Compound A14, N-(2-aminophenyl)-2-((5-fluoropyridin-3-yl)methyl)-2H-indazole-5-carboxamide]
> 6.00	A (50%<A)	No OPD	> 6.00	Nc1ccccc1NC(=O)c1ccc2c(cnn2Cc2cccnc2)c1 [Compound A1]
> 6.00	A (50%<A)	No OPD	5.30 to 6.00	Cc1ccc(Cn2cc3cc(C(=O)Nc4ccccc4N)ccc3n2)c(C)n1 [Compound A15]

Reference: patent US10428028B2, “HDAC inhibitors” (BIOMARIN PHARMACEUTICAL INC., priority 2013, dated 2019)
